The record followed here is the NIST ThermoML archive (doi:10.1016/j.jct.2008.01.022).

For this data set the following is noted: 101.33 kPa, Liquid; for viscosity: Capillary tube (Ostwald / Ubbelohde) method.

± gives the expanded uncertainty stated by the source.

What is called mass density is the mass of a sample divided by its volume. The viscosity is the resistance of a fluid to flow. For `CC(O)CO` (configuration not stated) [1,2-propanediol], the mass density came out at 1036.3 ± 0.6 kg/m3 (293.15 K), 1028.92 ± 0.58 kg/m3 (303.15 K), 1021.39 ± 0.57 kg/m3 (313.15 K) and 1013.7 ± 0.56 kg/m3 (323.15 K). In addition, the viscosity reads like this: (293.15 K) 56.21 ± 0.32 mPa·s; (303.15 K) 32.63 ± 0.24 mPa·s; (313.15 K) 19.58 ± 0.15 mPa·s; (323.15 K) 12.79 ± 0.1 mPa·s.

For `CCC(O)CO` (configuration not stated) [1,2-butanediol], the mass density is, setting by setting: (293.15 K) 1002.43 ± 0.54 kg/m3; (303.15 K) 994.98 ± 0.54 kg/m3; (313.15 K) 987.39 ± 0.55 kg/m3; (323.15 K) 979.64 ± 0.56 kg/m3. The viscosity came to 71.87 ± 0.69 mPa·s (293.15 K), 37.86 ± 0.28 mPa·s (303.15 K), 21.49 ± 0.16 mPa·s (313.15 K) and 13.12 ± 0.1 mPa·s (323.15 K).

On to `CCCC(O)CO` (configuration not stated) [1,2-pentanediol], for which the viscosity is, setting by setting: (293.15 K) 76.96 ± 2.1 mPa·s; (303.15 K) 39.16 ± 1 mPa·s; (313.15 K) 22.52 ± 0.58 mPa·s; (323.15 K) 13.66 ± 0.35 mPa·s. Moreover, the mass density runs as follows: (293.15 K, Vibrating tube method) 970.35 ± 5.1 kg/m3; (303.15 K, Vibrating tube method) 963.07 ± 5 kg/m3; (313.15 K, Vibrating tube method) 955.65 ± 5 kg/m3; (323.15 K, Vibrating tube method) 948.12 ± 4.9 kg/m3.

Turning to `CCCCC(O)CO` (configuration not stated) [1,2-hexanediol], the mass density (293.15 K) stood at 951.86 ± 2.3 kg/m3, the mass density (303.15 K) was found to be 944.66 ± 2.3 kg/m3, the mass density (313.15 K) was found to be 937.34 ± 2.3 kg/m3 and the mass density (323.15 K) is on record as 929.9 ± 2.3 kg/m3. The viscosity was 83.41 ± 1.6 mPa·s (293.15 K), 42.25 ± 0.67 mPa·s (303.15 K), 24.12 ± 0.39 mPa·s (313.15 K) and 14.79 ± 0.24 mPa·s (323.15 K).
